Experimental findings from US20230233569A1 (Revolution Medicines, Inc., priority 2020, published 2023) are described below.

Where only a bound is given, the exact number is not on record here.

What all share (assay): Ras-Raf disruption / FRET / MOA assay (BRAF RBD)
Common to all, as to assay type: biochemical

The target of one assay is KRAS G12S (Homo sapiens, UniProt P01116+P62937, G12S). The note with it: Ras-Raf disruption, with Cyclophilin A; read-out: KRAS G12S FRET data IC50. The method, boiled down: (§1)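 Compound-induced Ras–Cyclophilin A ternary complex disrupting BRAF RBD binding, read as IC50 from reduced TR-FRET ratio relative to DMSO. Final: Ras-GMPPNP 12.5 nM, BRAF RBD 50 nM, Cyclophilin A 25 μM, top compound 30 μM (3-fold, 10 points); 3 h at 25 °C, then 1.5 h with detection antibodies.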

For another assay, the target named is KRAS G12D (Homo sapiens, UniProt P01116+P62937, G12D). The note with it: Ras-Raf disruption, with Cyclophilin A; read-out: KRAS G12D FRET data IC50. An outline of the steps: as §1
In another assay the target is NRAS WT (Homo sapiens, UniProt P01111+P62937). The note with it: NRAS WT; read-out: NRAS WT FRET data IC50. An outline of the steps:
as §1

In the next assay the target is KRAS G13C (Homo sapiens, UniProt P01116+P62937, G13C). The note with it: Ras-Raf disruption, with Cyclophilin A; read-out: KRAS G13C FRET data IC50. An outline of the steps: as §1
The next assay deals with KRAS Q61H (Homo sapiens, UniProt P01116+P62937, Q61H). The note with it: KRAS Q61H; read-out: KRAS Q61H FRET data IC50. The method, boiled down: as §1
A further assay has as its target KRAS G12V (Homo sapiens, UniProt P01116+P62937, G12V). The note with it: Ras-Raf disruption, with Cyclophilin A; read-out: KRAS G12V FRET data IC50. The method, boiled down:
as §1

In a further assay the target is NRAS Q61K (Homo sapiens, UniProt P01111+P62937, Q61K). The note with it: NRAS Q61K; read-out: NRAS Q61K FRET data IC50. An outline of the steps: as §1
For another assay, the target named is KRAS WT (Homo sapiens, UniProt P01116+P62937). The note with it: Ras-Raf disruption, with Cyclophilin A; read-out: KRAS WT FRET data IC50. An outline of the steps: as §1
In another assay the target is KRAS G13D (Homo sapiens, UniProt P01116+P62937, G13D). The note with it: Ras-Raf disruption, with Cyclophilin A; read-out: KRAS G13D FRET data IC50. An outline of the steps: as §1
The target of another assay is NRAS G12C (Homo sapiens, UniProt P01111+P62937, G12C). The note with it: NRAS G12C; read-out: NRAS G12C FRET data IC50. The method, boiled down: as §1
For another assay, the target named is NRAS Q61R (Homo sapiens, UniProt P01111+P62937, Q61R). The note with it: NRAS Q61R; read-out: NRAS Q61R FRET data IC50. The method, boiled down: as §1
A further assay addresses KRAS G12C (Homo sapiens, UniProt P01116+P62937, G12C). The note with it: Ras-Raf disruption, with Cyclophilin A; read-out: KRAS G12C FRET data IC50. The method, boiled down:
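TR-FRET read-out after 1.5 h with anti-His Eu-W1024 (10 nM) and anti-GST APC (50 nM), following 3 h at 25 °C of compound (top 30 μM, 3-fold, 10 points) with 25 μM Cyclophilin A, 12.5 nM GMPPNP-loaded K-Ras G12C and 50 nM BRAF RBD; IC50 reported.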

As a reminder, the IC50 is the concentration at which inhibition is half-maximal.

Chain of KRAS G12V (P01116 1-169 isoform P01116-2 G12V limits assumed): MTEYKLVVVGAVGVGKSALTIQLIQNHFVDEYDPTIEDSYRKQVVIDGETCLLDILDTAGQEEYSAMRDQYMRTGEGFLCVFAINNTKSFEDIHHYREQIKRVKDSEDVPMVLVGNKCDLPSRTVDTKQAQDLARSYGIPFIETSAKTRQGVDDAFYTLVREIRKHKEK
Chain of KRAS G12V (P62937 whole entry): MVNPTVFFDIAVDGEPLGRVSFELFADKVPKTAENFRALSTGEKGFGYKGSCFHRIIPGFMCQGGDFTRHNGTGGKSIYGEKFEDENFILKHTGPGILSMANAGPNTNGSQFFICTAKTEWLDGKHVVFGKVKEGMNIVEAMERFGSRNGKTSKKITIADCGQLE
Chain of NRAS Q61R (P01111 whole entry Q61R): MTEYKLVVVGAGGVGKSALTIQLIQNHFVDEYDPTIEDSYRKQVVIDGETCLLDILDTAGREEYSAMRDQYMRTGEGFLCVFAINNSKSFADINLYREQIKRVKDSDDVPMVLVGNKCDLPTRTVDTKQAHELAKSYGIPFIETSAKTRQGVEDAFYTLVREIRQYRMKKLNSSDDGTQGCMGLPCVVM
Chain of NRAS Q61R (P62937 whole entry): as the sequence (P62937 whole entry) above
Chain of NRAS G12C (P01111 whole entry G12C): as the sequence (P01111 whole entry Q61R) above, with G12C, R61Q counted along it
Chain of NRAS G12C (P62937 whole entry): as the sequence (P62937 whole entry) above
Chain of KRAS G12C (P01116 1-169 isoform P01116-2 G12C limits assumed): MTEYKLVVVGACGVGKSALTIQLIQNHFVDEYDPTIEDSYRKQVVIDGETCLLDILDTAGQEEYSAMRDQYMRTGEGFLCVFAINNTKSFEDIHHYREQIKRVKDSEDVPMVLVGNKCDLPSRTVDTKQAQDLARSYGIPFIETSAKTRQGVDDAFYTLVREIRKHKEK
Chain of KRAS G12C (P62937 whole entry): as the sequence (P62937 whole entry) above
Chain of KRAS G13D (P01116 1-169 isoform P01116-2 G13D limits assumed): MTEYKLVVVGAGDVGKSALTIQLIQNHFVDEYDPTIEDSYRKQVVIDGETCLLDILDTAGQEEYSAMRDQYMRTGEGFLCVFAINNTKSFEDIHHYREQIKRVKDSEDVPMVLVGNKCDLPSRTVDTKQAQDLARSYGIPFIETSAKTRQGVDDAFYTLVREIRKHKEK
Chain of KRAS G13D (P62937 whole entry): as the sequence (P62937 whole entry) above
Chain of NRAS Q61K (P01111 whole entry Q61K): as the sequence (P01111 whole entry Q61R) above, with R61K counted along it
Chain of NRAS Q61K (P62937 whole entry): as the sequence (P62937 whole entry) above
Chain of KRAS Q61H (P01116 1-169 isoform P01116-2 Q61H limits assumed): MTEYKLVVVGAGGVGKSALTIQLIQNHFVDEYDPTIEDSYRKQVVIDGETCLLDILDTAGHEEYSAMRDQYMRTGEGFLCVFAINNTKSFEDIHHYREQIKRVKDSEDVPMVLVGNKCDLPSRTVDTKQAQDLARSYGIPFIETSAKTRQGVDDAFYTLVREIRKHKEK
Chain of KRAS Q61H (P62937 whole entry): as the sequence (P62937 whole entry) above
Chain of KRAS G13C (P01116 1-169 isoform P01116-2 G13C limits assumed): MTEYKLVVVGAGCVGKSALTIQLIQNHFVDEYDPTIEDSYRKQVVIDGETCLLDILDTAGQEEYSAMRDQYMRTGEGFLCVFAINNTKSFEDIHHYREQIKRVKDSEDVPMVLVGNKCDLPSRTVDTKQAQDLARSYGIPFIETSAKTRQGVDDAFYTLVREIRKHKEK
Chain of KRAS G13C (P62937 whole entry): as the sequence (P62937 whole entry) above
Chain of NRAS WT (P01111 whole entry): as the sequence (P01111 whole entry Q61R) above, with R61Q counted along it
Chain of NRAS WT (P62937 whole entry): as the sequence (P62937 whole entry) above
Chain of KRAS G12S (P01116 1-169 isoform P01116-2 G12S limits assumed): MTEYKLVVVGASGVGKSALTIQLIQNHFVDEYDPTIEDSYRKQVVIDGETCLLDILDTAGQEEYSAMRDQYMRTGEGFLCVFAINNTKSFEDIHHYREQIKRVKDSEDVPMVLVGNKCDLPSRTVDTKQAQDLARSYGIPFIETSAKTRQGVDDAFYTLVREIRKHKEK
Chain of KRAS G12S (P62937 whole entry): as the sequence (P62937 whole entry) above
Chain of KRAS WT (P01116 1-169 isoform P01116-2 limits assumed): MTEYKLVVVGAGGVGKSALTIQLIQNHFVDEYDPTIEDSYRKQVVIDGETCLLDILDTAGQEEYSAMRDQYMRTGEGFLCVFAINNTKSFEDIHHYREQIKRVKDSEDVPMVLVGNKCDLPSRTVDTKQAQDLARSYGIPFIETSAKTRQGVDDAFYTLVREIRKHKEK
Chain of KRAS WT (P62937 whole entry): as the sequence (P62937 whole entry) above
Chain of KRAS G12D (P01116 1-169 isoform P01116-2 G12D limits assumed): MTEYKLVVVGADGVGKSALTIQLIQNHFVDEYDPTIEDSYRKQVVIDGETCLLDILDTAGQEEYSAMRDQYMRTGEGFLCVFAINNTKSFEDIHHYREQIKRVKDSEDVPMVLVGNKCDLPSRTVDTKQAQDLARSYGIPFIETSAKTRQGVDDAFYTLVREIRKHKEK
Chain of KRAS G12D (P62937 whole entry): as the sequence (P62937 whole entry) above

As for `CCn1c(-c2cccnc2[C@H](C)OC)c2c3cc(ccc31)-c1csc(n1)C[C@H](NC(=O)[C@H](C(C)C)N(C)C(=O)N(C)[C@H]1CCN(C(=O)[C@H]3CN3)C1)C(=O)N1CCC[C@H](N1)C(=O)OCC(C)(C)C2` (atropisomer, axis not shown) [Example 296], the IC50 on KRAS G12S is 100 to 1000 nM; at KRAS G12D it was 1000 to 10000 nM; on NRAS WT it was 100 to 1000 nM; on KRAS G13C, 100 to 1000 nM; on KRAS Q61H, 100 to 1000 nM; at KRAS G12V it was 1000 to 10000 nM. Also, the IC50 at NRAS Q61K is 100 to 1000 nM; at KRAS WT it was 100 to 1000 nM; at KRAS G13D, 1000 to 10000 nM; at NRAS G12C, 100 to 1000 nM; at NRAS Q61R it was 100 to 1000 nM; at KRAS G12C it was 100 to 1000 nM.

For `CCn1c(-c2cccnc2[C@H](C)OC)c2c3cc(ccc31)-c1csc(n1)C[C@H](NC(=O)[C@H](C(C)C)N(C)C(=O)N(C)[C@H]1CCN(C(=O)[C@@H]3CN3)C1)C(=O)N1CCC[C@H](N1)C(=O)OCC(C)(C)C2` (atropisomer, axis not shown) [Example 310], the IC50 fell in the range of 100 to 1000 nM at KRAS G12S; 1000 to 10000 nM on KRAS G12D; 100 to 1000 nM at NRAS WT; 100 to 1000 nM at KRAS G13C; 100 to 1000 nM on KRAS Q61H; 100 to 1000 nM on KRAS G12V. For the same molecule, the IC50 on NRAS Q61K was in the range of 100 to 1000 nM; on KRAS WT, 100 to 1000 nM; on KRAS G13D, 1000 to 10000 nM; on NRAS G12C, 100 to 1000 nM; on NRAS Q61R, 100 to 1000 nM; at KRAS G12C it was 100 to 1000 nM.

Turning to `CCn1c(-c2cccnc2[C@H](C)OC)c2c3cc(ccc31)-c1cc(O)cc(c1)C[C@H](NC(=O)[C@H](C(C)C)N(C)C(=O)[C@]1(F)CCN(C(=O)[C@H]3CN3)C1)C(=O)N1CCC[C@H](N1)C(=O)OCC(C)(C)C2` (atropisomer, axis not shown) [Example 311], the IC50 on KRAS G12S fell in the range of 100 to 1000 nM; at KRAS G12D, 100 to 1000 nM; on NRAS WT, 10 to 100 nM; at KRAS G13C it was 10 to 100 nM; at KRAS Q61H, 10 to 100 nM; at KRAS G12V, 100 to 1000 nM. Besides, the IC50 was 100 to 1000 nM at NRAS Q61K; 100 to 1000 nM on KRAS WT; 100 to 1000 nM on KRAS G13D; less than 10 nM on NRAS G12C; 100 to 1000 nM at NRAS Q61R; less than 10 nM on KRAS G12C.

As for `CCn1c(-c2cccnc2[C@H](C)OC)c2c3cc(ccc31)-c1csc(n1)C[C@H](NC(=O)[C@H](C(C)C)N(C)C(=O)N1CCC(CN(C)C(=O)[C@H]3CN3)CC1)C(=O)N1CCC[C@H](N1)C(=O)OCC(C)(C)C2` (atropisomer, axis not shown) [Example 326], the IC50 was in the range of 10 to 100 nM at KRAS G12S; 100 to 1000 nM at KRAS G12D; 10 to 100 nM at NRAS WT; 10 to 100 nM at KRAS G13C; 10 to 100 nM at KRAS Q61H; 10 to 100 nM at KRAS G12V. Also, the IC50 at NRAS Q61K was in the range of 10 to 100 nM; at KRAS WT, 10 to 100 nM; at KRAS G13D, 100 to 1000 nM; at NRAS G12C, 10 to 100 nM; on NRAS Q61R it was 10 to 100 nM; at KRAS G12C it was 10 to 100 nM.

As for `CCn1c(-c2cccnc2[C@H](C)OC)c2c3cc(ccc31)-c1cc(O)cc(c1)C[C@H](NC(=O)[C@H](C(C)C)N(C)C(=O)CN(C)S(=O)(=O)[C@H]1CN1C)C(=O)N1CCC[C@H](N1)C(=O)OCC(C)(C)C2` (single isomer, unassigned) [Example 91], the IC50 on KRAS G12S fell in the range of 10 to 100 nM; on KRAS G12D, 100 to 1000 nM; at NRAS WT, 10 to 100 nM; at KRAS G13C it was 10 to 100 nM; on KRAS Q61H, 10 to 100 nM; on KRAS G12V, 100 to 1000 nM. Moreover, the IC50 at NRAS Q61K was in the range of 100 to 1000 nM; on KRAS WT, 10 to 100 nM; at KRAS G13D, 100 to 1000 nM; on NRAS G12C, 10 to 100 nM; at NRAS Q61R, 100 to 1000 nM; at KRAS G12C it was 10 to 100 nM.

Consider `CCn1c(-c2cccnc2[C@H](C)OC)c2c3cc(ccc31)-c1cc(O)cc(c1)C[C@H](NC(=O)[C@H](C(C)C)N(C)C(=O)CN(C)S(=O)(=O)[C@@H]1CN1C)C(=O)N1CCC[C@H](N1)C(=O)OCC(C)(C)C2` (single isomer, unassigned) [Example 92], for which the IC50 lay within 10 to 100 nM at KRAS G12S; 100 to 1000 nM on KRAS G12D; 10 to 100 nM on NRAS WT; 10 to 100 nM at KRAS G13C; 10 to 100 nM at KRAS Q61H; 100 to 1000 nM at KRAS G12V. The IC50 was 100 to 1000 nM on NRAS Q61K; 10 to 100 nM at KRAS WT; 100 to 1000 nM on KRAS G13D; 10 to 100 nM at NRAS G12C; 100 to 1000 nM on NRAS Q61R; 10 to 100 nM at KRAS G12C.

For `CCn1c(-c2cccnc2[C@H](C)OC)c2c3cc(ccc31)-c1cc(O)cc(c1)C[C@H](NC(=O)[C@H](C(C)C)N(C)C(=O)C1CCN(S(=O)(=O)[C@H]3CN3C)CC1)C(=O)N1CCC[C@H](N1)C(=O)OCC(C)(C)C2` (single isomer, unassigned) [Example 108], the IC50 at KRAS G12S was in the range of 100 to 1000 nM; at KRAS G12D it was 1000 to 10000 nM; on NRAS WT, 100 to 1000 nM; at KRAS G13C it was 10 to 100 nM; at KRAS Q61H it was 10 to 100 nM; on KRAS G12V, 100 to 1000 nM. The IC50 at NRAS Q61K, at KRAS WT, on KRAS G13D, at NRAS G12C, on NRAS Q61R and at KRAS G12C was 100 to 1000 nM throughout.

In the case of `CCn1c(-c2cccnc2[C@H](C)OC)c2c3cc(ccc31)-c1cc(O)cc(c1)C[C@H](NC(=O)[C@H](C(C)C)N(C)C(=O)C1CN(S(=O)(=O)[C@H]3CN3C)C1)C(=O)N1CCC[C@H](N1)C(=O)OCC(C)(C)C2` (single isomer, unassigned) [Example 117], the IC50 at KRAS G12S was in the range of 100 to 1000 nM; at KRAS G12D, 1000 to 10000 nM; on NRAS WT, 10 to 100 nM; at KRAS G13C, 10 to 100 nM; on KRAS Q61H, 10 to 100 nM; on KRAS G12V, 100 to 1000 nM. In addition, the IC50 at NRAS Q61K lay within 100 to 1000 nM; at KRAS WT, 100 to 1000 nM; on KRAS G13D, 100 to 1000 nM; at NRAS G12C, 100 to 1000 nM; on NRAS Q61R it was 100 to 1000 nM; at KRAS G12C, 10 to 100 nM.

For the molecule `CCn1c(-c2cccnc2[C@H](C)OC)c2c3cc(ccc31)-c1cc(O)cc(c1)C[C@H](NC(=O)[C@H](C(C)C)N(C)C(=O)C1CCN(S(=O)(=O)[C@@H]3CN3C)CC1)C(=O)N1CCC[C@H](N1)C(=O)OCC(C)(C)C2` (single isomer, unassigned) [Example 119], the IC50 at KRAS G12S lay in the range of 100 to 1000 nM; at KRAS G12D, 1000 to 10000 nM; on NRAS WT it was 100 to 1000 nM; on KRAS G13C it was 10 to 100 nM; at KRAS Q61H it was 10 to 100 nM; on KRAS G12V, 100 to 1000 nM. For the same molecule, the IC50 lay in the range of 100 to 1000 nM on NRAS Q61K; 100 to 1000 nM at KRAS WT; 100 to 1000 nM at KRAS G13D; 100 to 1000 nM at NRAS G12C; 1000 to 10000 nM on NRAS Q61R; 10 to 100 nM on KRAS G12C.
